Results: ChEMBL document CHEMBL4376860, “Discovery of Novel Dual Poly(ADP-ribose)polymerase and Phosphoinositide 3-Kinase Inhibitors as a Promising Strategy for Cancer Therapy” (J Med Chem, 2020)

Key:
[1] = target: Poly [ADP-ribose] polymerase 1 (Homo sapiens, UniProt P09874); experiment: Inhibition of recombinant human PARP1 using histone as substrate after 1 hr in presence of biotinylated NAD+ by ELISA
[2] = target: Phosphatidylinositol 4,5-bisphosphate 3-kinase catalytic subunit alpha isoform (Homo sapiens, UniProt P42336); experiment: Inhibition of PI3Kalpha (unknown origin) using PIP2 as substrate measured after 1 hr by ADP-glo plus luminescence assay
Chain of Phosphatidylinositol 4,5-bisphosphate 3-kinase catalytic subunit alpha isoform (P42336 whole entry, canonical isoform): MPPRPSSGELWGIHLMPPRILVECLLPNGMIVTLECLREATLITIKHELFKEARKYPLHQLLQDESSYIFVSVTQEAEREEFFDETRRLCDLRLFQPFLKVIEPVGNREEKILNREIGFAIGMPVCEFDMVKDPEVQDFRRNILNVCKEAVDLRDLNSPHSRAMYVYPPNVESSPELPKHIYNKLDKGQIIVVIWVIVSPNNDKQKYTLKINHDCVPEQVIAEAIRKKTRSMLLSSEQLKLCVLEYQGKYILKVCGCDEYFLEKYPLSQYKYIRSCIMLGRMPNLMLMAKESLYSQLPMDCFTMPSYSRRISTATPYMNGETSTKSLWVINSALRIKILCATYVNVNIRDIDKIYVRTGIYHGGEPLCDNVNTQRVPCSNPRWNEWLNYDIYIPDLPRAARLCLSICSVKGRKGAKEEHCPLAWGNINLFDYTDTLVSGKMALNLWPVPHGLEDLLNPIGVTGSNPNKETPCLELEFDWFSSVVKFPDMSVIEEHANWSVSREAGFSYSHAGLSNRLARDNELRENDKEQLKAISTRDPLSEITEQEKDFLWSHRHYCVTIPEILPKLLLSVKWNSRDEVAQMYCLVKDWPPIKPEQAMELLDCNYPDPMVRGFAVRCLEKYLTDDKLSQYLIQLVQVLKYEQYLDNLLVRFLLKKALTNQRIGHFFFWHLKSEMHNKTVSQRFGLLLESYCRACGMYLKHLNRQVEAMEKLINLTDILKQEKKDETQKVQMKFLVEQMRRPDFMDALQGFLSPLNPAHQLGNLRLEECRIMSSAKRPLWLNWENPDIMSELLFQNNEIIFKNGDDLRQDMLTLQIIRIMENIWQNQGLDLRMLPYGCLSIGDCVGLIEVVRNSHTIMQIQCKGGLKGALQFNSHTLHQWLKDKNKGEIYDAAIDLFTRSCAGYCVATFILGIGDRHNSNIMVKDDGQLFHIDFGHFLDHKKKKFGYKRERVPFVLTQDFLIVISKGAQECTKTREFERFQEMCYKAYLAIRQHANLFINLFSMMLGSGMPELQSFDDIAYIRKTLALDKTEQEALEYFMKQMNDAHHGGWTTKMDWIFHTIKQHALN

Chain of Poly [ADP-ribose] polymerase 1 (P09874 whole entry, canonical isoform): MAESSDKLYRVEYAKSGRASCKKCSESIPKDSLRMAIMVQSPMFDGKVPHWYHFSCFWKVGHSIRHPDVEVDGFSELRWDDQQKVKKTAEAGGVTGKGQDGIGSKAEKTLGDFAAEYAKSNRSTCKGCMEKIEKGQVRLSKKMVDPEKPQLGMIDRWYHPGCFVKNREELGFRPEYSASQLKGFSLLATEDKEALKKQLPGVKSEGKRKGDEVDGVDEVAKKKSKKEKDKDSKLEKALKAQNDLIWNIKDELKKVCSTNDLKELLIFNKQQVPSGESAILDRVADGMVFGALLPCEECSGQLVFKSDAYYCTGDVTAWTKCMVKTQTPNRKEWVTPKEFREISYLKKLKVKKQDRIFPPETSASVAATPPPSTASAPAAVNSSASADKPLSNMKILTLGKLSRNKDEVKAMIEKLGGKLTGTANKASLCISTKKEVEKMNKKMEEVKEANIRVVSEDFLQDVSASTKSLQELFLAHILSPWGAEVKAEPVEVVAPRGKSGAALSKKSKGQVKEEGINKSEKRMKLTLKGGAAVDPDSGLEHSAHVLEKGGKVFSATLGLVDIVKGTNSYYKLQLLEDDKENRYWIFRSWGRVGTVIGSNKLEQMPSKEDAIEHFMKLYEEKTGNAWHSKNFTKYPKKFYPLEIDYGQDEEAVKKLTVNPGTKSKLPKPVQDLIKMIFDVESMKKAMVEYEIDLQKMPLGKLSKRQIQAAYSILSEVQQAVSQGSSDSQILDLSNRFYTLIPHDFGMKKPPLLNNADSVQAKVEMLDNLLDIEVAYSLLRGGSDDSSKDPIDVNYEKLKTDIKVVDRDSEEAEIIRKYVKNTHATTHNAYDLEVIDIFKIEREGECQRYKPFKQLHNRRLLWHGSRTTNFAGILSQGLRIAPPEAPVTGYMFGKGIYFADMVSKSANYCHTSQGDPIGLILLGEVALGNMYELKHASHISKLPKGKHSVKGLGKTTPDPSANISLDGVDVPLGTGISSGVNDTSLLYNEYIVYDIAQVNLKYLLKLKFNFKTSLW

**Q.** Which IC50 [1] does the source give for `Nc1ncc(-c2nc(N3CCOCC3)nc(N3CCN(C(=O)c4cc(Cc5n[nH]c(=O)c6ccccc56)ccc4F)CC3)n2)cc1C(F)(F)F` here?
**A.** 1.12 nM

**Q.** What about the IC50 [2] of the same molecule?
**A.** 1200 nM

**Q.** What does the source list for `Nc1cc(-c2nc(N3CCOCC3)nc(N3CCN(C(=O)c4cc(Cc5n[nH]c(=O)c6ccccc56)ccc4F)CC3)n2)ccc1F`?
**A.** IC50 [1]: 1.1 nM; IC50 [2]: 2290 nM

**Q.** For `Nc1cc(C(F)(F)F)c(-c2cc(N3CCN(C(=O)c4cc(Cc5n[nH]c(=O)c6ccccc56)ccc4F)CC3)nc(N3CCOCC3)n2)cn1`, which IC50 [1] is on record?
**A.** 15.5 nM

**Q.** What about the IC50 [2] of the same molecule?
**A.** 324 nM

**Q.** Which IC50 [1] does the source give for `Nc1ccc(-c2nc(N3CCOCC3)nc(N3CCN(C(=O)c4cc(Cc5n[nH]c(=O)c6ccccc56)ccc4F)CC3)n2)cc1F` here?
**A.** 0.832 nM

**Q.** What about the IC50 [2] of the same molecule?
**A.** 562 nM

**Q.** `Nc1ccc(-c2nc(N3CCOCC3)nc(N3CCN(C(=O)c4cc(Cc5n[nH]c(=O)c6ccccc56)ccc4F)CC3)n2)cn1` was tested. Which IC50 [1] did it give?
**A.** 1.07 nM

**Q.** And the IC50 [2]?
**A.** 132 nM

**Q.** With `Nc1cc(C(F)(F)F)c(-c2nc(N3CCOCC3)nc(N3CCN(C(=O)c4cc(Cc5n[nH]c(=O)c6ccccc56)ccc4F)CC3)n2)cn1` as the molecule, how does the IC50 [1] read?
**A.** 9.55 nM

**Q.** And the IC50 [2]?
**A.** 170 nM

**Q.** Which results are given for `O=C(c1cc(Cc2n[nH]c(=O)c3ccccc23)ccc1F)N1CCc2c(nc(-c3cccc4[nH]ccc34)nc2N2CCOCC2)C1`?
**A.** IC50 [1]: 4.9 nM; IC50 [2]: 43.7 nM

**Q.** Which results are given for `Nc1ccc(-c2nc(N3CCOCC3)nc(N3CCN(C(=O)c4cc(Cc5n[nH]c(=O)c6ccccc56)ccc4F)CC3)n2)c(F)c1`?
**A.** IC50 [1]: 0.724 nM; IC50 [2]: 708 nM

**Q.** Which IC50 [1] does the source give for `O=C(c1cc(Cc2n[nH]c(=O)c3ccccc23)ccc1F)N1CCN(c2nc(-c3ccc4[nH]ccc4c3)nc(N3CCOCC3)n2)CC1` here?
**A.** 0.692 nM

**Q.** And the IC50 [2]?
**A.** 692 nM
